Results taken from patent US12139520B2 (priority 2020, dated 2024).
Bridge positions count the residues as written; N and C are the ends. Square brackets hold non-standard residues; d marks the D form. Peptide text beside a SMILES is read from it. Hyp = O=C(O)[C@@H]1C[C@@H](O)CN1; Cit = NC(=O)NCCC[C@H](N)C(=O)O

Assays:
hAM1 receptor = hAM1 receptor (Homo sapiens, UniProt O60895+Q16602); assay: cAMP assay for in vitro receptor activation, hAM1-R; type: cell-based; settings: cAMP assay, hAM1 receptor; read-out: hAM1R EC50
Sequence of hAM1 receptor (Q16602 23-461): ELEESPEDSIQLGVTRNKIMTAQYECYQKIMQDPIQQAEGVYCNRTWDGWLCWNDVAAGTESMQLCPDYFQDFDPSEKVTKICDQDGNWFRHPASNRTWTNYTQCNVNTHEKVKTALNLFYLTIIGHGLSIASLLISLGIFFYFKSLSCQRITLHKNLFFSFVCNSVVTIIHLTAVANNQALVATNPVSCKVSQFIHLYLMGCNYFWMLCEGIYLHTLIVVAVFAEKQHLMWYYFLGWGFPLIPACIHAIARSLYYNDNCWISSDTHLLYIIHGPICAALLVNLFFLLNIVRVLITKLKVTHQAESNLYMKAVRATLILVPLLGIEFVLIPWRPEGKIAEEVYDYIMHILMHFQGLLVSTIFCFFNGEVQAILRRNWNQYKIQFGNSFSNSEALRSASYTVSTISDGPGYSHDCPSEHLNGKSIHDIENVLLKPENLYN
Sequence of hAM1 receptor (O60895 43-175 partner): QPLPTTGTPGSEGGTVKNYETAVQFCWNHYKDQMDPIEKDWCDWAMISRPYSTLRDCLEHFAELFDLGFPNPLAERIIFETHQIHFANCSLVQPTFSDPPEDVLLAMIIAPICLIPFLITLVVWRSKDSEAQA
How it was run: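 Monoclonal stable hAM1-overexpressing cells, thawed from frozen stock; 8000 cells/well in DPBS + 0.05% casein + 0.5 mM IBMX; read-out cAMP.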

hAMY3 receptor = target: T1, hAMY3 receptor (Homo sapiens, UniProt O60896+P30988); assay: cAMP assay for in vitro receptor activation, hAMY3-R; type: cell-based; settings: cAMP assay, hAMY3 receptor; read-out: hAMY3R EC50
T1 sequence (P30988 25-474): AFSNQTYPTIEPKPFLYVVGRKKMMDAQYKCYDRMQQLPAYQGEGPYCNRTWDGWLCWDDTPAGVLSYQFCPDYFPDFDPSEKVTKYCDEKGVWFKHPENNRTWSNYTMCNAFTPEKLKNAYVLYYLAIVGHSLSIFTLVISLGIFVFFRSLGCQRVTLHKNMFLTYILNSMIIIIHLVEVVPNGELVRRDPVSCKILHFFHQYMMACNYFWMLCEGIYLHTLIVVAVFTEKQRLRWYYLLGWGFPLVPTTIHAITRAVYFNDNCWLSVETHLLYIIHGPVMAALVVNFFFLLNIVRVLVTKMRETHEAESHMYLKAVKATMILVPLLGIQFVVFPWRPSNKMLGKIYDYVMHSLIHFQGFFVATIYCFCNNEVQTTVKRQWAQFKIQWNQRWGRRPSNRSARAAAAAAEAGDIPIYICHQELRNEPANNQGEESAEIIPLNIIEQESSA
T1 sequence (O60896 24-148 partner): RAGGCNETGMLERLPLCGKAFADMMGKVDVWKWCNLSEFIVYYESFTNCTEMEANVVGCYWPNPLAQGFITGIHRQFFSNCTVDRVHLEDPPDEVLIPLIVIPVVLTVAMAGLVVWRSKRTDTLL
How it was run: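 Graded compound concentrations were applied for 30 min at room temperature to stably hAMY3-expressing cells in DPBS, 0.05% casein, 0.5 mM IBMX; cAMP detected by TR-FRET.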

[1] = Physical stability of peptide analogues (Thioflavin T fibrillation); type: physicochemical; settings: maximum ThT signal normalized between hAMY maximum and buffer background; 40° C., shaking, four days; pH 7 per table title
How it was run: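 Maximum ThT emission at 480 nm, after LOESS smoothing, is given as percent of the span from buffer background to hAMY. Conditions: 50 mM buffer at pH 4 or 7, 4 μM dye, 40 °C, repeated shaking, readings every 10 min for four days.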

| SMILES | EC50 (hAM1 receptor) [nM] | EC50 (hAMY3 receptor) [nM] | Max ThT signal (%) [1] [%] |
| --- | --- | --- | --- |
| CC[C@H](C)[C@H](NC(=O)[C@H](CCC(N)=O)NC(=O)[C@H](Cc1c[nH]cn1)NC(=O)[C@H](C)NC(=O)[C@H](CC(C)C)NC(=O)[C@H](CCCNC(N)=O)NC(=O)[C@H](CCC(N)=O)NC(=O)[C@@H](NC(=O)[C@@H](NC(=O)[C@@H]1CSSC[C@H](NC(=O)[C@@H](N)CCCCN)C(=O)N[C@@H](CC(N)=O)C(=O)N[C@@H]([C@@H](C)O)C(=O)N[C@@H](C)C(=O)N[C@@H]([C@@H](C)O)C(=O)N1)[C@@H](C)O)C(C)C)C(=O)N[C@@H](Cc1ccc(O)cc1)C(=O)N[C@@H](CCC(N)=O)C(=O)N[C@@H](Cc1ccccc1)C(=O)N[C@H](C(=O)N[C@@H](CC(=O)O)C(=O)N[C@@H](CCCCN)C(=O)N[C@@H](CC(=O)O)C(=O)N[C@@H](CCCCN)C(=O)N[C@@H](CC(=O)O)C(=O)N[C@@H](CC(N)=O)C(=O)N[C@H](C(=O)N[C@@H](C)C(=O)N1CCC[C@H]1C(=O)N1CCC[C@H]1C(=O)N[C@H](C(=O)N[C@@H](CC(N)=O)C(=O)N[C@H](C(=O)NCC(=O)N[C@@H](CO)C(=O)N[C@@H](CC(N)=O)C(=O)NCC(=O)N1C[C@H](O)C[C@H]1C(N)=O)C(C)C)[C@@H](C)O)C(C)C)[C@@H](C)O [compound 268] (H-KCNTATCTVQ[Cit]LAHQIYQFTDKDKDNVAPPTNVGSNG[Hyp]-NH2; disulfide 2-7; N-terminus assumed) | > 5000 | 0.014 | 8.850 |
| CC[C@H](C)[C@H](NC(=O)[C@H](CCC(N)=O)NC(=O)[C@H](Cc1c[nH]cn1)NC(=O)[C@H](C)NC(=O)[C@H](CC(C)C)NC(=O)[C@H](CCCNC(N)=O)NC(=O)[C@H](CCC(N)=O)NC(=O)[C@@H](NC(=O)[C@@H](NC(=O)[C@@H]1CSSC[C@H](NC(=O)CN)C(=O)N[C@@H](CCCNC(=N)N)C(=O)N[C@@H]([C@@H](C)O)C(=O)NCC(=O)N[C@@H]([C@@H](C)O)C(=O)N1)[C@@H](C)O)C(C)C)C(=O)N[C@@H](Cc1ccc(O)cc1)C(=O)N[C@@H](CCC(N)=O)C(=O)N[C@@H](Cc1ccccc1)C(=O)N[C@H](C(=O)N[C@@H](CC(=O)O)C(=O)N[C@@H](CCCCN)C(=O)N[C@@H](CC(=O)O)C(=O)N[C@@H](CCCCN)C(=O)N[C@@H](CC(=O)O)C(=O)N[C@@H](CC(N)=O)C(=O)N[C@H](C(=O)N[C@@H](C)C(=O)N1CCC[C@H]1C(=O)N[C@@H](CCCNC(=N)N)C(=O)N[C@H](C(=O)N[C@@H](CC(N)=O)C(=O)N[C@H](C(=O)NCC(=O)N1CCC[C@H]1C(=O)N[C@@H](CC(N)=O)C(=O)NCC(=O)N[C@@H](Cc1ccc(O)cc1)C(N)=O)C(C)C)[C@@H](C)O)C(C)C)[C@@H](C)O [compound 269] (H-GCRTGTCTVQ[Cit]LAHQIYQFTDKDKDNVAPRTNVGPNGY-NH2; disulfide 2-7; N-terminus assumed) | > 5000 | 0.005 | 34.500 |
| CC[C@H](C)[C@H](NC(=O)[C@H](CCC(N)=O)NC(=O)[C@H](Cc1c[nH]cn1)NC(=O)[C@H](C)NC(=O)[C@H](CC(C)C)NC(=O)[C@H](CCCNC(N)=O)NC(=O)[C@H](CCC(N)=O)NC(=O)[C@@H](NC(=O)[C@@H](NC(=O)[C@@H]1CSSC[C@H](NC(=O)[C@@H](N)CCCCN)C(=O)N[C@@H](CC(N)=O)C(=O)N[C@@H]([C@@H](C)O)C(=O)N[C@@H](C)C(=O)N[C@@H]([C@@H](C)O)C(=O)N1)[C@@H](C)O)C(C)C)C(=O)N[C@@H](Cc1ccc(O)cc1)C(=O)N[C@@H](CCC(N)=O)C(=O)N[C@@H](Cc1ccccc1)C(=O)N[C@H](C(=O)N[C@@H](CC(=O)O)C(=O)N[C@@H](CCCCN)C(=O)N[C@@H](CC(=O)O)C(=O)N[C@@H](CCCCN)C(=O)N[C@@H](CC(=O)O)C(=O)N[C@@H](CC(N)=O)C(=O)N[C@H](C(=O)N[C@@H](C)C(=O)N1CCC[C@H]1C(=O)N[C@@H](CCCNC(=N)N)C(=O)N[C@H](C(=O)N[C@@H](CCC(=O)O)C(=O)N[C@H](C(=O)NCC(=O)N[C@@H](CO)C(=O)N[C@@H](CC(N)=O)C(=O)NCC(=O)N[C@@H](Cc1ccc(O)cc1)C(N)=O)C(C)C)[C@@H](C)O)C(C)C)[C@@H](C)O [compound 272] (H-KCNTATCTVQ[Cit]LAHQIYQFTDKDKDNVAPRTEVGSNGY-NH2; disulfide 2-7; N-terminus assumed) | > 5000 | 0.009 | 16.750 |
| CC[C@H](C)[C@H](NC(=O)[C@H](CCC(N)=O)NC(=O)[C@H](Cc1c[nH]cn1)NC(=O)[C@H](C)NC(=O)[C@H](CC(C)C)NC(=O)[C@H](CCCNC(N)=O)NC(=O)[C@H](CCC(N)=O)NC(=O)[C@@H](NC(=O)[C@@H](NC(=O)[C@@H]1CSSC[C@H](NC(=O)CN)C(=O)N[C@@H](CCCNC(=N)N)C(=O)N[C@@H]([C@@H](C)O)C(=O)NCC(=O)N[C@@H]([C@@H](C)O)C(=O)N1)[C@@H](C)O)C(C)C)C(=O)N[C@@H](Cc1ccc(O)cc1)C(=O)N[C@@H](CCC(N)=O)C(=O)N[C@@H](Cc1ccccc1)C(=O)N[C@H](C(=O)N[C@@H](CC(=O)O)C(=O)N[C@@H](CCCCN)C(=O)N[C@@H](CC(=O)O)C(=O)N[C@@H](CCCCN)C(=O)N[C@@H](CC(=O)O)C(=O)N[C@@H](CC(N)=O)C(=O)N[C@H](C(=O)N[C@@H](C)C(=O)N1CCC[C@H]1C(=O)N[C@@H](CCCNC(=N)N)C(=O)N[C@H](C(=O)N[C@@H](CC(N)=O)C(=O)N[C@H](C(=O)NCC(=O)N1CCC[C@H]1C(=O)N[C@@H](CCC(N)=O)C(=O)NCC(=O)N[C@@H](Cc1ccc(O)cc1)C(N)=O)C(C)C)[C@@H](C)O)C(C)C)[C@@H](C)O [compound 273] (H-GCRTGTCTVQ[Cit]LAHQIYQFTDKDKDNVAPRTNVGPQGY-NH2; disulfide 2-7; N-terminus assumed) | > 5000 | 0.021 | 29.000 |
| CC[C@H](C)[C@H](NC(=O)[C@H](CCC(N)=O)NC(=O)[C@H](Cc1c[nH]cn1)NC(=O)[C@H](C)NC(=O)[C@H](CC(C)C)NC(=O)[C@H](CCCNC(N)=O)NC(=O)[C@H](CCC(N)=O)NC(=O)[C@@H](NC(=O)[C@@H](NC(=O)[C@@H]1CSSC[C@H](NC(=O)CN)C(=O)N[C@@H](CCCNC(=N)N)C(=O)N[C@@H](Cc2ccccc2)C(=O)NCC(=O)N[C@@H]([C@@H](C)O)C(=O)N1)[C@@H](C)O)C(C)C)C(=O)N[C@@H](Cc1ccc(O)cc1)C(=O)N[C@@H](CCC(N)=O)C(=O)N[C@@H](Cc1ccccc1)C(=O)N[C@H](C(=O)N[C@@H](CC(=O)O)C(=O)N[C@@H](CCCCN)C(=O)N[C@@H](CC(=O)O)C(=O)N[C@@H](CCCCN)C(=O)N[C@@H](CC(=O)O)C(=O)N[C@@H](CC(N)=O)C(=O)N[C@H](C(=O)N[C@@H](C)C(=O)N1CCC[C@H]1C(=O)N[C@@H](CCCNC(=N)N)C(=O)N[C@H](C(=O)N[C@@H](CCCCN)C(=O)N[C@H](C(=O)N[C@@H](CO)C(=O)N1CCC[C@H]1C(=O)N[C@@H](CC(N)=O)C(=O)NCC(=O)N1C[C@H](O)C[C@H]1C(N)=O)[C@@H](C)CC)[C@@H](C)O)C(C)C)[C@@H](C)O [compound 275] (H-GCRFGTCTVQ[Cit]LAHQIYQFTDKDKDNVAPRTKISPNG[Hyp]-NH2; disulfide 2-7; N-terminus assumed) | > 5000 | 0.02 | 19.850 |
